Source: patent US20150011566A1, “N-PHENYLPIPERAZINE DERIVATIVES THAT ARE ANTAGONISTS OF A1A, A1D ADRENOCEPTORS AND 5-HT1A RECEPTORS FOR THE TREATMENT OF BENIGN PROSTATE HYPERPLASIA, PHARMACEUTICAL COMPOSITIONS CONTAINING THE SAME” (UNIVERSIDADE FEDERAL DO RIO DE JANEIRO-UFRJ, priority 2012, published 2015)
pKi: −log10 of the molar value. Read-outs that look alike come from different tables or passages of the source.

Legend:
[1] = molecular target: T1, α1D adrenoceptors (Rattus norvegicus, UniProt P23944); test: Phenylephrine-induced contraction inhibition in rat aorta (isometric contraction, Schild KB); assay type: cell-based; parameters: CR: concentration ratio CR = EC′50/EC50 (with/without antagonist); details: for Kb / log KB ± EPM (M): Schild equation; for CR ± EPM: ratio of EC50 in presence and absence of test substance
T1 construct: the rat thoracic aorta corresponds to a tissue expressing mainly α1D-adrenoceptors; from tissue; host or cells: rat thoracic aorta rings
T1 sequence (P23944 1-561): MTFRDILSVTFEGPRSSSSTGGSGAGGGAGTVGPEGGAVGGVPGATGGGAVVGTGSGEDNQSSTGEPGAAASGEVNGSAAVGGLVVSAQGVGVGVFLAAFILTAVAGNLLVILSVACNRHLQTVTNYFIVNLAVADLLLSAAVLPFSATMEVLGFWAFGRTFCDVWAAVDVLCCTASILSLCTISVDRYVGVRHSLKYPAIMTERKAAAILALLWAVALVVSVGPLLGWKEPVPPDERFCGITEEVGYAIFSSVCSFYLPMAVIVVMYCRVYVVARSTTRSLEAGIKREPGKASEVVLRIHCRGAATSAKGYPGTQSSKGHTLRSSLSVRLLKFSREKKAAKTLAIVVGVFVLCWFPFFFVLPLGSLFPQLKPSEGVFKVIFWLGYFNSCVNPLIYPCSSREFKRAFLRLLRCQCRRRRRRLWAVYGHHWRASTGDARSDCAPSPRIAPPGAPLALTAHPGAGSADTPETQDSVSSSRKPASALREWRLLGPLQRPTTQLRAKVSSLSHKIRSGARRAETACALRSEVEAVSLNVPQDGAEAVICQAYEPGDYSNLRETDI
Protocol: Isometric contraction assays were performed using Male Wistar rats, aged 2.5-3 months euthanized as described above. The thoracic aorta (tissue enriched in functional α1D adrenergic receptors) was removed, free from adjacent connective and adipose tissues cut in 3 mm segments. […] The aort segments were then subjected to a preload of 20 mN per 60 minutes. After recovery of tissues maintained for 1 hour at rest, it was performed a contraction induced by phenylephrine (PE) 1 μM (α1 adrenergic receptors selective agonist). In this plateau contraction, in order to promote endothelium-dependent relaxation resulting from the activation of the enzyme endothelial nitric oxide synthase (eNOS) and subsequent release of nitric oxide (NO), acetylcholine 1 μM was added. Rings that relaxed at least 80% were considered to have intact endothelium, were used.
Then the preparation was washed and allowed to stand for 1 hour in order to recover the tissue. Then it was performed cumulative curves to phenylephrine (10^−9 to 10^−5 M) in the presence of propranolol 1 μM (β-adrenoceptor blocker receptors) before and after incubation for 1 hour of the LDT's at 10 or 50 nM. In parallel, a temporal control was performed to rule out any artifacts on the measured contraction, where was added only the vehicle (ultrapure water Milli Q®) instead of the substance to be tested. Strictly following the same protocol as the other tanks wherein it was added the LDT's.
The data were scanned in MacLab 8S system connected to the isometric tension transducer Grass FT-03, which recorded the voltage variation in milinewtons (mN) generated throughout the analysis. The digitized data were then analyzed by Chart 3.4/s software program (MacLab, Inc., USA). In the pharmacological screening process, the initial concentration of the used LDT's was 50 nM, which is considered as cut concentration, i.e., substances that have no effect at this concentration would not investigated in this test. […] The ratio of the EC50 value in these two conditions (with and without LDT) matches the third parameter, called “concentration ratio” (or RC).
log(CR−1)=log [B]−log KB (Equation 1)
Where CR=concentration ratio (EC′50/EC50); [B]=‘B’ antagonist concentration; KB=equilibrium dissociation constant of the antagonist ‘B’.
With this in view, the functional tests of contraction in isolated organ model were performed using these tissues. […] Similarly, targeting to rule out any artifacts on the measured contraction, a time control was performed where only the vehicle was added (ultrapure Mili Q® water) in place of the substance to be tested, strictly following the same protocol as the other vats were added to the LDT's (FIG. 1).

[2] = molecular target: T2, 5-HT1A receptors (Rattus norvegicus, UniProt P19327); test: Binding of [3H]p-MPPF with GTP to 5-HT1A receptors; intrinsic activity (Ki low/Ki high); details: for pKi: antagonist radioligand [3H] p-MPPF in the presence of GTP, read-out: Ki low; for Ki low/Ki high: estimate of intrinsic activity; for pharmacological classification: from Ki low/Ki high; for Ki value ratios for low and high affinity receptor states: in words
T2 construct: Intrinsic Activity at Native 5-HT1A Receptors; from tissue; host or cells: rat hippocampus membranes
T2 sequence (P19327 1-422): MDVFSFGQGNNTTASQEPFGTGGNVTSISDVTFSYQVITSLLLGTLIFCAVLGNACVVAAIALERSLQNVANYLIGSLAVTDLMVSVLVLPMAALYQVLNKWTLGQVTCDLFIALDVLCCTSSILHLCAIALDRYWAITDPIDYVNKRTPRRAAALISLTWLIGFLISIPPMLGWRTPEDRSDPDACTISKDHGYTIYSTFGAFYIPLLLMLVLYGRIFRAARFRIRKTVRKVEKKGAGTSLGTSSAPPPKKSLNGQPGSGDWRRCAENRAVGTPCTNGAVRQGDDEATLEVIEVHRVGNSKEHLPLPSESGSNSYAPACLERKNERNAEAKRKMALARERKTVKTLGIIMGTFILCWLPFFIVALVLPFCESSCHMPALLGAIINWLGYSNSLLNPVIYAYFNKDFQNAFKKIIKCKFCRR
Protocol: Membrane preparations of rat hippocampus according to previously described by HALL et al (1985) and PEROUTKA (1986) were performed. The homogenization and centrifugation steps were performed identically to that described above for receptors α2A and 5-HT2A receptors.
The binding assays for the 5-HT1A receptors were performed as described previously in the literature and previously standardized in the laboratory through saturation experiments. […] (solvent for dilution of LDT's) for the determination of total binding, or 50 μL non-radioative serotonin at 10 μM to determine the non-specific binding (final volume of 500 μL). Assays were performed in triplicate. […] Assays were performed in triplicate.
After the incubation period, the reaction was stopped by adding 4 ml of ice-cold solution containing 5 mM Tris (pH 7.4), followed by vacuum filtration on glass fiber filter (GMF 3, Filtrak®) previously soaked with solution 0.5% polyethylenoimine. The filters were washed three times with 4 mL of ice-cold solution containing 5 mM Tris (pH 7.4) under vacuum to remove all free radioligand. Then the filters were dried and placed in vials containing 5 ml scintillation fluid (composition: 4% PPO, 0.1% POPOP w/p in toluene). The radioactivity retained on the filters was then determined in a liquid scintillation counter (Packard Tri-Carb 1600 TR). […] For these receptors were also determined the […] and Ki parameters.
The GTP presence displaces the GPCR to a state of low affinity (Lahti et al, 1992). The intrinsic activity of a substance can be estimated using GPCR agonist or antagonist radioligand appropriate to define the affinity of the substance in the state of high and low affinity receptor, respectively.

[3] = KB (nM), Table 1, test substance at 50 nM (a), 10 nM (b) or 2 nM (c)
[4] = log KB ± EPM (M), Table 1, test substance at 50 nM (a), 10 nM (b) or 2 nM (c)
[5] = Table 2, 50 nM (62-69) or 10 nM (70, 39)
[6] = Table 2, 50 nM (62-69) or 10 nM (70, 39), read-out: KB
[7] = Table 2, phenylephrine curve in presence of LTD 50 nM (62-69)
[8] = Table 2, phenylephrine curve in presence of LTD 10 nM (70 and 39)

| SMILES | Kb [1, 3] | Kb [1, 4] | CR ([1]; Table 2, LTD 50 nM (62-69)) | log KB ± EPM (M) [1, 5] | Kb [1, 6] | log CE50 ± EPM (M) LDT [1, 7] | also measured |
| --- | --- | --- | --- | --- | --- | --- | --- |
| COc1ccccc1N1CCN(CCc2ccccc2)CC1 [LDT 2] | 2.15 nM | 3.09 nM |  |  |  |  | CR ± EPM ([1]; 50 nM): 24.3 ± 8.7 |
| COc1ccc(CCN2CCN(c3ccccc3OC)CC2)cc1 [LDT 4] | 3.14 nM | 3.39 nM |  |  |  |  | CR ± EPM ([1]; 50 nM): 16.9 ± 5.5 |
| CCCCCCN1CCN(c2ccccc2OC)CC1 [LDT 66] |  |  | 32 | −8.78 ± 0.06a M | 1.66 nM | −5.29 ± 0.07 M | pKi ([2]; Table 9): 8.05; Ki low/Ki high ([2]; Table 9): 1.80 |
| COc1ccc(CCN2CCN(c3ccccc3OC)CC2)cc1OC [LDT 5] | 0.57 nM | 0.589 nM |  |  |  |  | CR ± EPM ([1]; 10 nM): 18.5 ± 2.5; pharmacological classification ([2]; Table 13): antagontist |
| CCCCCCCCN1CCN(c2ccccc2OC)CC1 [LDT 68] |  |  | 12.8 | −8.36 ± 0.05 M | 4.36 nM | −5.81 ± 0.06 M | pKi ([2]; Table 9): 8.51; Ki low/Ki high ([2]; Table 9): 0.34 |
| CCCCCN1CCN(c2ccccc2OC)CC1 [LDT 65] |  |  | 7.0 |  |  | −5.89 ± 0.05 M | Kb ([1]; KB (nM), Table 2, 50 nM (62-69) or 10 nM (70, 39)): 8.3 nM; Ki low/Ki high ([2]; Table 9): 1.18 |
| CCCCN1CCN(c2ccccc2OC)CC1 [LDT 64] |  |  | 6.4 | −7.93 ± 0.13 M | 11.7 nM | −6.18 ± 0.08 M |  |
| CCOc1ccccc1N1CCN(CCc2ccc(OC)c(OC)c2)CC1 [LDT 245] | 1.16 nM | 1.17 nM |  |  |  |  |  |
| CCN1CCN(c2ccccc2)CC1 [LDT 39] |  |  |  | −6.85 ± 0.08a M | 141 nM |  | CR ([1]; Table 2, LTD 10 nM (70 and 39)): 76.7; log CE50 ± EPM (M) LDT [1, 8]: −4.91 ± 0.05 M |
| CCCCCCCN1CCN(c2ccccc2OC)CC1 [LDT 67] |  |  | 29.5 | −8.74 ± 0.08a M | 1.82 nM | −5.46 ± 0.08 M | pKi ([2]; Table 9): 8.17; Ki low/Ki high ([2]; Table 9): 0.37 |
| CCN1CCN(c2ccccc2OC)CC1 [LDT 62] |  |  | 7 | −8.08 ± 0.02 M | 8.3 nM | −6.01 ± 0.06 M |  |
| CCOc1ccccc1N1CCN(CCc2ccc3c(c2)OCO3)CC1 [LDT 8] | 0.16 nM | 0.166 nM |  |  |  |  | CR ± EPM ([1]; 10 nM): 62.5 ± 15.5; pharmacological classification ([2]; Table 13): partial antagonist; Ki value ratios for low and high affinity receptor states [2]: close to the unity; pKi ([2]; Table 13): 9.21 |
| CCN1CCN(c2ccccc2O)CC1 [LDT 70] |  |  |  | −7.07 ± 0.08a M | 85.1 nM |  | CR ([1]; Table 2, LTD 10 nM (70 and 39)): 123.6; log CE50 ± EPM (M) LDT [1, 8]: −4.86 ± 0.09 M |
| CCOc1ccccc1N1CCN(CC)CC1 [LDT 69] |  |  | 6.9 | −8.06 ± 0.08 M | 8.71 nM | −5.87 ± 0.07 M |  |
| COc1cccc(CCN2CCN(c3ccccc3OC)CC2)c1 [LDT 3] | 1.78 nM |  |  |  |  |  | CR ± EPM ([1]; 50 nM): 29.1 ± 1.8; pharmacological classification ([2]; Table 13): antagonist; Ki value ratios for low and high affinity receptor states [2]: close to the unity |
| CCCN1CCN(c2ccccc2OC)CC1 [LDT 63] |  |  | 3.1 | −7.59 ± 0.12b M | 31.5 nM | −6.80 ± 0.18 M |  |
